Measured values from ChEMBL document CHEMBL5143522, “Discovery of novel 6-hydroxybenzothiazole urea derivatives as dual Dyrk1A/α-synuclein aggregation inhibitors with neuroprotective effects” (Eur J Med Chem, 2022).
One block for each molecule: values may come before it. Activity calls are given as the source filed them. The rule behind the calls is not given here.

Tests used:
[1] = target: T1, Dual specificity tyrosine-phosphorylation-regulated kinase 1A (Homo sapiens, UniProt Q13627); experiment: Inhibition of human N-terminal His6-tagged DYRK1A expressed in Escherichia coli BL21 (DE3) using KKISGRLSPIMTEQ as substrate incubated in presence of ATP
[2] = target: Dual specificity tyrosine-phosphorylation-regulated kinase 1B (Homo sapiens) (UniProt Q9Y463); experiment: Inhibition of human recombinant DYRK1B at 1 uM using KKISGRLSPIMTEQ as substrate incubated in presence of ATP relative to control
Chain of Dual specificity tyrosine-phosphorylation-regulated kinase 1B (Homo sapiens) (Q9Y463 whole entry, looked up): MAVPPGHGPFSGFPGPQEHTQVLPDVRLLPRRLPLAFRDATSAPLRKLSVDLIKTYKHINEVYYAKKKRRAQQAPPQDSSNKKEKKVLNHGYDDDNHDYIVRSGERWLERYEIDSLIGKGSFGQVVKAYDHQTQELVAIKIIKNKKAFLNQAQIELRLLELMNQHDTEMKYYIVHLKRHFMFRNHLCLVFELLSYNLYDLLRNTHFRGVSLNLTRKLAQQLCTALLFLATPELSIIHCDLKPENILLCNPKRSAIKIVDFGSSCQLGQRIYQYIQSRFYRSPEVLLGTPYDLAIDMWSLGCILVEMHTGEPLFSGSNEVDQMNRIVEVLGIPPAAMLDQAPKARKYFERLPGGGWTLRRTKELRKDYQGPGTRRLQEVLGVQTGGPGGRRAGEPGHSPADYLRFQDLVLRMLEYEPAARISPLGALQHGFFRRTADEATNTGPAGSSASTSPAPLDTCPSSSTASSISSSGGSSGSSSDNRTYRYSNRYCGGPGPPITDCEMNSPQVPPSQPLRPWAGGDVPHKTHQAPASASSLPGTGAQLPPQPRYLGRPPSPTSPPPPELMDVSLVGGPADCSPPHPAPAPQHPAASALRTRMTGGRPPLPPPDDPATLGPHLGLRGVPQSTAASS

SH-SY5Y [3] = experiment: Neuroprotective activity against 6-OHDA induced cytotoxicity against human SH-SY5Y cells assessed as increase in cell viability at 10 uM by MTT assay; type: functional, cell-based
[4] = Permeability of the compound in PBS/EtOH buffer (7:3) incubated for 16 hrs by PAMPA-BBB assay
[5] = target: T1, Dual specificity tyrosine-phosphorylation-regulated kinase 1A; conditions: dose 250.0 nM
[6] = target: Cyclin-dependent kinase 5/CDK5 activator 1 (Homo sapiens) (UniProt Q00535+Q15078); experiment: Inhibition of CDK5/p25 (unknown origin) at 1 uM by Selectscreen kinase assay relative to control; type: protein-complex assay
Chain of Cyclin-dependent kinase 5/CDK5 activator 1 (Homo sapiens) (Q00535 whole entry, the tested form may be a part): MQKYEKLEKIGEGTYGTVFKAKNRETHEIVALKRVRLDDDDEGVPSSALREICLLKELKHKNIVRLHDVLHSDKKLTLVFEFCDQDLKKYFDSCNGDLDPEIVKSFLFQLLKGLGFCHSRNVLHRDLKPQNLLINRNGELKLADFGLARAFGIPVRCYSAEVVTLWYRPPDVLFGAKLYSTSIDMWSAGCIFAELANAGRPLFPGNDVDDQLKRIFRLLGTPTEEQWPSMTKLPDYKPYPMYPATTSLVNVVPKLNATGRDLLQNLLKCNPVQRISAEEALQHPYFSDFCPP
Chain of Cyclin-dependent kinase 5/CDK5 activator 1 (Homo sapiens) (Q15078 99-307 partner limits assumed): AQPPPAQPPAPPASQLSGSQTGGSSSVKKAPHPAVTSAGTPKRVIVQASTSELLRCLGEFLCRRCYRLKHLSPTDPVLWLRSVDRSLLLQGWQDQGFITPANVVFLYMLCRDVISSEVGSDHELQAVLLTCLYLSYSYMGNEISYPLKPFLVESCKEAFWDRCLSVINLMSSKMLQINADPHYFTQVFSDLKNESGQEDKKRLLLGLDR

[7] = target: Dual specificity protein kinase CLK1 (Homo sapiens) (UniProt P49759); experiment: Inhibition of GST-tagged human recombinant CLK1 (129 to 484 residues) expressed in Escherichia coli at 1 uM using GRSRSRSRSRSRSRSR as substrate incubated in presence of ATP by Selectscreen kinase assay relative to control
Chain of Dual specificity protein kinase CLK1 (Homo sapiens) (P49759 whole entry, looked up, the tested form may be a part, canonical isoform): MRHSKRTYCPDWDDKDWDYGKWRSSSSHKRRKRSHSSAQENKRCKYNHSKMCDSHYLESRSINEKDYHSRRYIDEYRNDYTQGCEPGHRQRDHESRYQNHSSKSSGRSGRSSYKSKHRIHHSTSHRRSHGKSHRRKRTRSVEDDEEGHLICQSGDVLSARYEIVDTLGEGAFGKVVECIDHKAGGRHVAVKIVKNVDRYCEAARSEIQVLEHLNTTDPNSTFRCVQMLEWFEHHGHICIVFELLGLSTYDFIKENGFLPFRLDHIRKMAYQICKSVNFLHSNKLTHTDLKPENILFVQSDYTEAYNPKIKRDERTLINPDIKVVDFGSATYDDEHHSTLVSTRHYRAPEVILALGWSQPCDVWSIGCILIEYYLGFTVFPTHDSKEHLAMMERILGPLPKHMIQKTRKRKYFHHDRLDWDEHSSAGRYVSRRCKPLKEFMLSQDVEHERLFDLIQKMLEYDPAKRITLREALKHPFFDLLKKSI

[8] = target: Casein kinase I isoform delta (Homo sapiens) (UniProt P48730); experiment: Inhibition of CSNK1D (unknown origin) at 1 uM incubated in presence of ATP by Selectscreen kinase assay relative to control
Chain of Casein kinase I isoform delta (Homo sapiens) (P48730 whole entry, looked up, canonical isoform): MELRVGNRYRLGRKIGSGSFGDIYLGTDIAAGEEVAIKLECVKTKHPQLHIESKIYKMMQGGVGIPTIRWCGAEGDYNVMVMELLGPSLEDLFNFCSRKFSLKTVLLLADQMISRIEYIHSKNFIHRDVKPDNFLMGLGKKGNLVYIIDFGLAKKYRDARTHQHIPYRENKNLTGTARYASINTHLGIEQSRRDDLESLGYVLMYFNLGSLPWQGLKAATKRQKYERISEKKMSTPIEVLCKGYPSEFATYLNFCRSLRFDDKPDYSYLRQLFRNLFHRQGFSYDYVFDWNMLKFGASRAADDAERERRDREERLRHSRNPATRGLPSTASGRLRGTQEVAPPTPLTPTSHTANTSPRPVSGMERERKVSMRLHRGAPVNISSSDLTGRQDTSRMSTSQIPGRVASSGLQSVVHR

[9] = target: Serine/threonine-protein kinase pim-1 (Homo sapiens) (UniProt P11309); experiment: Inhibition of PIM1 (unknown origin) at 1 uM incubated in presence of ATP by Selectscreen kinase assay relative to control
Chain of Serine/threonine-protein kinase pim-1 (Homo sapiens) (P11309 whole entry, looked up): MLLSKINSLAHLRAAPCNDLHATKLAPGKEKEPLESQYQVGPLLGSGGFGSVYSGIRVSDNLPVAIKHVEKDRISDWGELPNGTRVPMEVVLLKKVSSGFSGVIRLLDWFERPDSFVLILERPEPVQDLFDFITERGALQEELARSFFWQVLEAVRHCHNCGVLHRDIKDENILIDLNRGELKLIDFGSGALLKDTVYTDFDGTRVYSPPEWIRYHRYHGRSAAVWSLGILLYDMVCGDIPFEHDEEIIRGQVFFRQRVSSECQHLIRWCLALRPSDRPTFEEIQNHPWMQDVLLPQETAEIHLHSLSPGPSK

[10] = target: SRSF protein kinase 1 (Homo sapiens) (UniProt Q96SB4); experiment: Inhibition of SRPK1 (unknown origin) at 1 uM incubated in presence of ATP by Selectscreen kinase assay relative to control
Chain of SRSF protein kinase 1 (Homo sapiens) (Q96SB4 whole entry): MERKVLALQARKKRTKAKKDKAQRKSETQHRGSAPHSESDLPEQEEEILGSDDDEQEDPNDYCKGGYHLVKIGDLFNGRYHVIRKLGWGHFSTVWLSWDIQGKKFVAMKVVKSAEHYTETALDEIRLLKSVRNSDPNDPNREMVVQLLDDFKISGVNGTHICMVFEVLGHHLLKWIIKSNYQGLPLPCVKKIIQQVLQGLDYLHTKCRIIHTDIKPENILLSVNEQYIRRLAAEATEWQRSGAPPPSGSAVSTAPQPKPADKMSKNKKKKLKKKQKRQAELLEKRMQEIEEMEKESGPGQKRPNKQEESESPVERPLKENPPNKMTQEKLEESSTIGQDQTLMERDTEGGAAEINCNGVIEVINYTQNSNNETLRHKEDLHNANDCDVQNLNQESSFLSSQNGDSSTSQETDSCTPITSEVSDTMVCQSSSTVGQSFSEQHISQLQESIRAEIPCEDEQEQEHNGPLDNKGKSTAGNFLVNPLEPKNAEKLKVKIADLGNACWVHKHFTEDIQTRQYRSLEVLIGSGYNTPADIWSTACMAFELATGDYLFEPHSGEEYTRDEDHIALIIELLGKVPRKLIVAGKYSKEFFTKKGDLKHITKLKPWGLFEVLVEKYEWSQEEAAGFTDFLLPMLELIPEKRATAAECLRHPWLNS

[11] = target: T2, Dual specificity tyrosine-phosphorylation-regulated kinase 2 (Homo sapiens) (UniProt Q92630); experiment: Inhibition of DYRK2 (unknown origin) at 1 uM incubated in presence of ATP by Selectscreen kinase assay relative to control
T2 sequence (whole entry): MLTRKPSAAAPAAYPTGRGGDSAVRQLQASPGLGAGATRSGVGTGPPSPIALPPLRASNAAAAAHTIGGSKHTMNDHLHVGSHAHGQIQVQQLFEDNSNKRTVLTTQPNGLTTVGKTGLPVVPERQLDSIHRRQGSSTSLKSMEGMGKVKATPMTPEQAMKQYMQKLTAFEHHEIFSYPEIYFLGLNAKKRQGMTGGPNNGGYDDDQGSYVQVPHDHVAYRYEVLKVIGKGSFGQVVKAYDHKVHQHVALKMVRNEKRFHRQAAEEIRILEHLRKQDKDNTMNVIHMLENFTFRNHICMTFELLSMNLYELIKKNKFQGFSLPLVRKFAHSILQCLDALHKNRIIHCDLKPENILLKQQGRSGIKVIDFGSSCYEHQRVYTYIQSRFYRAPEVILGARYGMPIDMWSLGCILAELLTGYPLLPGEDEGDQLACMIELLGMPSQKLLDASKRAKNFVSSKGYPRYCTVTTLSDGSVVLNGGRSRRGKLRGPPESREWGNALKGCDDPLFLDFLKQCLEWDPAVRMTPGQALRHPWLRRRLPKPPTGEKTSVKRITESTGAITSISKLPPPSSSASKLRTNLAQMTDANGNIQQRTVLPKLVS

[12] = target: T3, Serine/threonine-protein kinase 17A (Homo sapiens) (UniProt Q9UEE5); experiment: Inhibition of STK17A (unknown origin) at 1 uM incubated in presence of ATP by Selectscreen kinase assay relative to control
T3 sequence (whole entry): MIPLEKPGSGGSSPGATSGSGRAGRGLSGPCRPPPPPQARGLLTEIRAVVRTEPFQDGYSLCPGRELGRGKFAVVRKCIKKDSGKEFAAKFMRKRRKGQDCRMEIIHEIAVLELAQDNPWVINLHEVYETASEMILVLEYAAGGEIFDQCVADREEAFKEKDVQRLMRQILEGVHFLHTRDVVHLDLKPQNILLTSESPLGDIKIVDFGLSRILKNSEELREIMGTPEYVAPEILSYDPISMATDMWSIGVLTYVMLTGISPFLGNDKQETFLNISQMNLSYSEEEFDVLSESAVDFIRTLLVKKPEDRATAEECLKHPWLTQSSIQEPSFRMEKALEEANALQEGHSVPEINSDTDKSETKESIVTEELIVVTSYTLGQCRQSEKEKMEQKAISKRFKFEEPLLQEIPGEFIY

[13] = target: Glycogen synthase kinase-3 beta (Homo sapiens) (UniProt P49841); experiment: Inhibition of GSK3beta (unknown origin) at 1 uM incubated in presence of ATP by Selectscreen kinase assay relative to control
Chain of Glycogen synthase kinase-3 beta (Homo sapiens) (P49841 whole entry, looked up, the tested form may be a part): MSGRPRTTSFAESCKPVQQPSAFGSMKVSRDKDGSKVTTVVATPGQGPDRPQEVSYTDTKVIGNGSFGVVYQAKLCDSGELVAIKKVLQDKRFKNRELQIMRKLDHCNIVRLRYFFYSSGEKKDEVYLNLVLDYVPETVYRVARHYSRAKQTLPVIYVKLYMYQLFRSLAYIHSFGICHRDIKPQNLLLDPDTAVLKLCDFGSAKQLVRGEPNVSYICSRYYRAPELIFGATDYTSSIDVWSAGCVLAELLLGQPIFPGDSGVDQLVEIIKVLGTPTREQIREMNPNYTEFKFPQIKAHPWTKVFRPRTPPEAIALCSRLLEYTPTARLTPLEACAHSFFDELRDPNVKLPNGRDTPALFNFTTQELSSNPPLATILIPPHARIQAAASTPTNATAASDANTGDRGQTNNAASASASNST

[14] = target: T1, Dual specificity tyrosine-phosphorylation-regulated kinase 1A; experiment: Binding affinity to C-terminal HiBiT-tagged human DYRK1A (28 to 499 residues) stably expressed in HEK293 cells assessed as thermal stability by measuring increase in DYRK1A in soluble fraction at 10 to 30 uM incubated for 3.5 mins by ITDRF-CETSA analysis; type: cell-based; conditions: dose 10-30 µM
[15] = target: T1, Dual specificity tyrosine-phosphorylation-regulated kinase 1A; experiment: Inhibition of DYRK1A in human HeLa cells transiently expressing GFP-SF3B1 fusion protein assessed as reduction in SF3B1 phosphorylation incubated for 24 hrs by immunoblot analysis; type: cell-based
[16] = target: Homeodomain-interacting protein kinase 1 (Homo sapiens) (UniProt Q86Z02); experiment: Inhibition of HIPK1 (unknown origin) at 1 uM incubated in presence of ATP by Selectscreen kinase assay relative to control
Chain of Homeodomain-interacting protein kinase 1 (Homo sapiens) (Q86Z02 whole entry, looked up): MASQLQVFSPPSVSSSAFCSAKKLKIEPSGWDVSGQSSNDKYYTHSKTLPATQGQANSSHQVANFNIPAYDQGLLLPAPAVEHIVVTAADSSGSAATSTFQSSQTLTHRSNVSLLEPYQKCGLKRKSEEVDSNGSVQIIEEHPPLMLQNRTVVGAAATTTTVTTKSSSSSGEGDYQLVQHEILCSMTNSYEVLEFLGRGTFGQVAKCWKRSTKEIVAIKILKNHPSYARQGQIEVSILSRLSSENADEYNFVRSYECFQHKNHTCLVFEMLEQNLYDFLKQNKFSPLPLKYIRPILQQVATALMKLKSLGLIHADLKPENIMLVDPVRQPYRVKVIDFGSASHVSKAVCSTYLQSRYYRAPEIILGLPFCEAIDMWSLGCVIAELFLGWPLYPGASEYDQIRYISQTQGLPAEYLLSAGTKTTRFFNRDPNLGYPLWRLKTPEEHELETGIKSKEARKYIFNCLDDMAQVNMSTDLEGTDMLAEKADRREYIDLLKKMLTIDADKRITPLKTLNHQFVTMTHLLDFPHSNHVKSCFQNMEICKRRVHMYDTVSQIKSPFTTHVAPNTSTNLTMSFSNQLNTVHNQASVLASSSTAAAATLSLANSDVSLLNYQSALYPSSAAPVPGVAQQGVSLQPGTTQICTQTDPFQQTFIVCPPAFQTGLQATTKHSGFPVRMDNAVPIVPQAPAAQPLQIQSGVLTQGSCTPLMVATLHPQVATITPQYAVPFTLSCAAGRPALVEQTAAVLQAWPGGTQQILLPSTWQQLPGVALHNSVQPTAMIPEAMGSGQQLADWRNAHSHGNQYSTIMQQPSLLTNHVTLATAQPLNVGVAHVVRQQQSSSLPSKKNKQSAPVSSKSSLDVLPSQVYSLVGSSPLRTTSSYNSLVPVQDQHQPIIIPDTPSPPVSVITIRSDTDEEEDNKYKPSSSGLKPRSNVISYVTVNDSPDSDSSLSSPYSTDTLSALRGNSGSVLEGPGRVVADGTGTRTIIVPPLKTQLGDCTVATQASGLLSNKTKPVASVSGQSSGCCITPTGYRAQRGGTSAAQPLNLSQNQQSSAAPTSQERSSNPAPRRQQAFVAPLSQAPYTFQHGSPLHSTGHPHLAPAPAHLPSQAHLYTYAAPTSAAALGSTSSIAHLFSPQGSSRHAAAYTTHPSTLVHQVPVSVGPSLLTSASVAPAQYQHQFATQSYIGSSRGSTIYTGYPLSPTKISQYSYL

[17] = target: Myosin light chain kinase 2, skeletal/cardiac muscle (Homo sapiens) (UniProt Q9H1R3); experiment: Inhibition of MLCK2 (unknown origin) at 1 uM incubated in presence of ATP by Selectscreen kinase assay relative to control
[18] = target: T4, Serine/threonine-protein kinase haspin (Homo sapiens) (UniProt Q8TF76); experiment: Inhibition of GSG2 (unknown origin) at 1 uM incubated in presence of ATP by Selectscreen kinase assay relative to control
T4 sequence (whole entry): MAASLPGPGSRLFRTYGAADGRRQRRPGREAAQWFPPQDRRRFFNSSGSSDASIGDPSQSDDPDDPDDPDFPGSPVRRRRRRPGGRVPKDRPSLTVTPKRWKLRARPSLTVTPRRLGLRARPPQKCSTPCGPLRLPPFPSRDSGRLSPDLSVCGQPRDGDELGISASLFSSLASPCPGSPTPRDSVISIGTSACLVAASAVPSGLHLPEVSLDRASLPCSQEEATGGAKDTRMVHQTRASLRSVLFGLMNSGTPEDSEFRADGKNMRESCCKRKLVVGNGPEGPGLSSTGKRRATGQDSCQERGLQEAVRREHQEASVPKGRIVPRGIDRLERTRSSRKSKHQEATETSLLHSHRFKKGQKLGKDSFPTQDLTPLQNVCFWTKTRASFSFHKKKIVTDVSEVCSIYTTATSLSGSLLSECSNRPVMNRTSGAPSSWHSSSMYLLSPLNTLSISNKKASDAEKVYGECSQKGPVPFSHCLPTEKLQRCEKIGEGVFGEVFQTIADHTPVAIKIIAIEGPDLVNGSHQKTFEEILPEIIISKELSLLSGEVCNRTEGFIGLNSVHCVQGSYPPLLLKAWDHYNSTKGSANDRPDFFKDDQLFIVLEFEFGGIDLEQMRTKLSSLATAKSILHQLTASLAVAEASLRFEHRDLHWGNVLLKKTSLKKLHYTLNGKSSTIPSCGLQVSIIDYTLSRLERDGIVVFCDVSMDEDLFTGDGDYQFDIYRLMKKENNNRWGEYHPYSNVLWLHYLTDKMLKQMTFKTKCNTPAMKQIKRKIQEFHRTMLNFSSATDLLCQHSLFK

SH-SY5Y [19] = experiment: Neuroprotective activity against alpha-syn induced cytotoxicity against human SH-SY5Y cells assessed as increase in cell viability at 10 uM by MTT assay; type: functional, cell-based
[20] = target: T1, Dual specificity tyrosine-phosphorylation-regulated kinase 1A; experiment: Inhibition of human Dyrk1A
[21] = target: T5, Dual specificity tyrosine-phosphorylation-regulated kinase 2 (Homo sapiens, UniProt Q92630); experiment: Inhibition of Dyrk2 (unknown origin)
T5 sequence (Q92630 whole entry): T2 sequence (whole entry)

SMILES: O=C(Nc1ccc(NC(=O)C2CCNCC2)cc1)Nc1nc2ccc(O)cc2s1
IC50 [1]: 177 nM | inhibition [2]: 51% | Activity (SH-SY5Y [3]): Active | Papp at 16 h [4]: 4.4 ×10⁻⁶ cm/s | inhibition [5]: 69%

IC50 [1]: 159 nM | inhibition [2]: 29% | inhibition [5]: 62%
SMILES: O=C(Nc1ccc(NC(=O)C2CC2)cc1)Nc1nc2ccc(O)cc2s1

inhibition [2]: 6%
SMILES: O=C(Nc1ccc(NC(=O)c2ccc(Cl)cc2)cc1)Nc1nc2ccc(O)cc2s1

IC50 [1]: 20 nM | inhibition [6]: 6% | inhibition [7]: 21% | inhibition [8]: 6% | inhibition [9]: 3% | inhibition [10]: 4% | inhibition [11]: 20% | inhibition [12]: 28% | inhibition [13]: 8% | Activity [14]: Active | IC50 [15]: 690 nM | Papp at 16 h [4]: 7.9 ×10⁻⁶ cm/s | inhibition [5]: 75%
SMILES: O=C(Cc1ccccc1)Nc1ccc(NC(=O)Nc2nc3ccc(O)cc3s2)cc1

SMILES: COc1ccc2c(c1)[nH]c1c(C)nccc12
Activity (SH-SY5Y [3]): Active

IC50 [1]: 45 nM | inhibition [2]: 15% | inhibition [6]: 5% | inhibition [7]: 7% | inhibition [8]: 15% | inhibition [16]: 2% | inhibition [9]: 3% | inhibition [10]: 4% | inhibition [11]: 27% | inhibition [17]: 18% | inhibition [12]: 29% | inhibition [18]: 3% | inhibition [13]: 15% | inhibition [5]: 79%
SMILES: O=C(Nc1ccc(NS(=O)(=O)c2cccc(F)c2)cc1)Nc1nc2ccc(O)cc2s1

inhibition [2]: 17%
SMILES: O=C(Nc1ccc(NC(=O)c2ccccc2F)cc1)Nc1nc2ccc(O)cc2s1

inhibition [2]: 36%
SMILES: N#Cc1cccc(C(=O)Nc2ccc(NC(=O)Nc3nc4ccc(O)cc4s3)cc2)c1

inhibition [2]: 19%
SMILES: O=C(Nc1ccc(NS(=O)(=O)c2ccccc2F)cc1)Nc1nc2ccc(O)cc2s1

inhibition [2]: 65%
SMILES: CC(=O)Nc1ccc(NC(=O)Nc2nc3ccc(O)cc3s2)cc1

inhibition [2]: 13%
SMILES: O=C(Nc1ccc(NC(=O)c2ccc(F)cc2)cc1)Nc1nc2ccc(O)cc2s1

inhibition [2]: 11%
SMILES: O=C(Nc1ccc(NC(=O)c2cc(F)cc(F)c2)cc1)Nc1nc2ccc(O)cc2s1

inhibition [2]: 13%
SMILES: O=C(Nc1ccc(NC(=O)c2cccc(Br)c2)cc1)Nc1nc2ccc(O)cc2s1

inhibition [2]: 9%
SMILES: O=C(Nc1ccc(NC(=O)c2cccc(F)c2)cc1)Nc1nc2ccc(O)cc2s1

IC50 [1]: 154 nM | inhibition [2]: 34% | inhibition [5]: 65%
SMILES: O=C(Nc1ccc(NC(=O)c2ccccc2)cc1)Nc1nc2ccc(O)cc2s1

inhibition [2]: 25%
SMILES: O=C(Nc1ccc(NC(=O)C2CCCCC2)cc1)Nc1nc2ccc(O)cc2s1

inhibition [2]: 30%
SMILES: Cc1cccc(C(=O)Nc2ccc(NC(=O)Nc3nc4ccc(O)cc4s3)cc2)c1

inhibition [2]: 26%
SMILES: O=C(Nc1ccc(NC(=O)C2CCC2)cc1)Nc1nc2ccc(O)cc2s1

inhibition [2]: 10%
SMILES: O=C(Nc1ccc(NC(=O)c2cc(F)c(F)c(F)c2)cc1)Nc1nc2ccc(O)cc2s1

inhibition [2]: 23%
SMILES: N#Cc1ccc(C(=O)Nc2ccc(NC(=O)Nc3nc4ccc(O)cc4s3)cc2)cc1

inhibition [2]: 18%
SMILES: O=C(Nc1ccc(NC(=O)c2cccc(Cl)c2)cc1)Nc1nc2ccc(O)cc2s1

Papp at 16 h [4]: 1.1 ×10⁻⁶ cm/s
SMILES: CCn1cc(C(=O)O)c(=O)c2cc(F)c(N3CCNCC3)cc21 [NORFLOXACIN]

inhibition [2]: 14%
SMILES: O=C(Nc1ccc(NC(=O)c2cccc(C(F)(F)F)c2)cc1)Nc1nc2ccc(O)cc2s1

inhibition [2]: 18%
SMILES: O=C(Nc1ccc(NS(=O)(=O)c2ccccc2)cc1)Nc1nc2ccc(O)cc2s1

inhibition [2]: 11%
SMILES: O=C(Nc1ccc(NC(=O)c2cc(Cl)cc(Cl)c2)cc1)Nc1nc2ccc(O)cc2s1

inhibition [2]: 46% | Papp at 16 h [4]: 6.5 ×10⁻⁶ cm/s
SMILES: O=C(Nc1ccc(NC(=O)c2cccc(O)c2)cc1)Nc1nc2ccc(O)cc2s1
Activity (SH-SY5Y [19]): Active

inhibition [2]: 9%
SMILES: O=C(Nc1ccc(NS(=O)(=O)c2cc(F)cc(F)c2)cc1)Nc1nc2ccc(O)cc2s1

inhibition [2]: 10%
SMILES: O=C(Nc1cccc(NS(=O)(=O)c2cccc(F)c2)c1)Nc1nc2ccc(O)cc2s1

IC50 [20]: 93 nM | IC50 [21]: > 5000 nM
SMILES: CN1CCN(C(=O)c2ccc(NC(=O)Nc3nc4ccc(O)cc4s3)cc2)CC1

inhibition [2]: 17%
SMILES: O=C(Nc1ccc(NC(=O)c2c(F)cc(F)cc2F)cc1)Nc1nc2ccc(O)cc2s1
